US20240024266A1, “Therapeutic Agent or Prophylactic Agent for COVID-19” (priority 2020, published 2024)
Like-named read-outs stand apart in the source and are kept apart here.

Columns and labels:
[1] = test system: feline coronavirus (FCoV); conditions: cited from earlier work
SARS-CoV-2 [2] = test: Suppressing effect against SARS-CoV-2 proliferation at 5 or 10 μM (nucleocapsid Western blotting); assay type: cell-based; conditions: 5 μM, MOI 10, cell lysate 8 hours after infection
SARS-CoV-2 [3] = test: Confirmation test of suppressing effect against SARS-CoV-2 proliferation (nucleocapsid Western blotting, VeroE6/TMPRSS2 cells); assay type: cell-based; conditions: 20 μM Pin1 inhibitor, VeroE6/TMPRSS2 cells, MOI 10, cell lysate 8 hours after infection, nucleocapsid band area vs no inhibitor; for inhibition at 20 µM: Severe acute respiratory syndrome coronavirus 2, VeroE6/TMPRSS2, 8 h, read-out: Inhibition Rate
SARS-CoV-2 [4] = test: Inhibitory effect of ATRA on SARS-CoV-2 proliferation (nucleocapsid Western blotting and real-time PCR); assay type: cell-based; conditions: MOI 0.01, 24 hours
Procedure: In this Example, the inhibitory effect of SARS-CoV-2 proliferation by ATRA, a therapeutic agent for promyelocytic leukemia known to have inhibitory activity against Pin1. ATRA was added to VeroE6/TMPRSS2 cells to the final concentrations of 0, 0.5, 1, 5, 10, 20, and 30 μM, to which SARS-CoV-2 was infected at multiplicity of infection (MOI) of 0.01 after 2 hours, followed by recovering cell lysate after 24 hours and then detecting SARS-CoV-2 nucleocapsid, Pin1 and actin as an internal standard in the cells by Western blotting. SARS-CoV-2 proliferation was evaluated on the basis of the expression level of SARS-CoV-2 nucleocapsid in the cells.

SARS-CoV-2 [5] = assay type: cell-based; conditions: MOI 0.01 to 0.02, 24 hours
SARS-CoV-2 [6] = assay type: cell-based; conditions: MOI 0.01, 24 hours after infection, real-time PCR

| Structure (SMILES) | inhibition at 20 µM (SARS-CoV-2 [3]) | other results |
| --- | --- | --- |
| S=C(SC(=S)N1CCCCC1)N1CCCCC1 [dipentamethylenethiuram monosulfide] |  | replication of feline coronavirus (FCoV) [1]: inhibited |
| O=C(Cn1c2ccccc2c2ccccc21)Nc1ccc(OCc2ccc3ccccc3c2)cc1C(=O)O [H-537] | 96% | inhibition rate of SARS-CoV-2 nucleocapsid (Western blotting) (SARS-CoV-2 [2]): high inhibition rate |
| CC1=C(/C=C/C(C)=C/C=C/C(C)=C/C(=O)O)C(C)(C)CCC1 [ATRA] |  | proliferation of SARS-CoV-2 (SARS-CoV-2 [4]; 5 μM or more): suppressed; proliferation of SARS-CoV-2 (SARS-CoV-2 [4]; 10 μM or more): substantially suppressed |
| COC(=O)[C@@H](Cc1ccc2ccccc2c1)NC(=O)c1ccc(CNC(=O)OC(C)(C)C)cc1 [H-848] | 53% |  |
| O=C(Nc1ccc(OCc2ccc3ccccc3c2)cc1C(=O)O)c1ccc2ccccc2c1 [H-487] |  | Inhibition Rate (SARS-CoV-2 [3]): 63% |
| O=C(Nc1ccc(OCc2ccccc2)cc1C(=O)O)OCc1ccccc1 [H-78] | 96% |  |
| COC(=O)c1cc(NC(=O)CC2c3ccccc3-c3ccccc32)cc(NC(=O)c2ccc3ccccc3c2)c1 [H-857] | 55% |  |
| O=C(Nc1ccc(OCc2ccccc2)cc1C(=O)O)c1ccc2ccccc2c1 [H-77] |  | inhibition rate of SARS-CoV-2 nucleocapsid (Western blotting) (SARS-CoV-2 [2]): high inhibition rate; SARS-CoV-2 proliferation (SARS-CoV-2 [5]; 10 μM added 2 hours before the infection): suppressed; SARS-CoV-2 detection (SARS-CoV-2 [5]; 10 μM added 6 hours after the infection): slightly detected; SARS-CoV-2 proliferation (SARS-CoV-2 [5]; 10 μM added after the infection (2 hours, 6 hours)): suppressed; SARS-CoV-2 proliferation (SARS-CoV-2 [5]; 10 μM added at the time of the infection): suppressed; proliferation of SARS-CoV-2 (SARS-CoV-2 RNA level in supernatant) (SARS-CoV-2 [6]; 5 μM): suppressed; proliferation of SARS-CoV-2 (SARS-CoV-2 RNA level in supernatant) (SARS-CoV-2 [6]; 7.5 μM): substantially suppressed; Inhibition Rate (SARS-CoV-2 [3]): 96% |
| COC(=O)c1cc(N)cc(NC(=O)CN(c2ccccc2)c2ccccc2)c1 [H-816] | 63% |  |
| O=C(Nc1ccc(OCc2ccc3ccccc3c2)cc1C(=O)O)c1ccc2ccccc2c1 [H-371] |  | Inhibition Rate (SARS-CoV-2 [3]): 99% |
| O=C(O)c1cc(OCc2ccc3ccccc3c2)c(C(=O)O)cc1OCc1ccc2ccccc2c1 [H-444] | 55% |  |
| Nc1cc(NC(=O)CN(c2ccccc2)c2ccccc2)cc(C(=O)O)c1 [H-817] | 61% |  |
| O=C(NCCC[C@H](NC(=O)n1c2ccccc2c2ccccc21)C(=O)O)c1ccc2ccccc2c1 [H-717] | 87% |  |
| O=C(O)[C@@H](Cc1ccc2ccccc2c1)OCc1ccc2ccccc2c1 [H-181] | 99% |  |
| COC(=O)c1cc(NC(=O)c2ccc(CN)cc2)cc(NC(=O)n2ccc3ccccc32)c1 [H-881] | 88% |  |
| O=C(O)c1cc(NC(=O)c2ccc3ccccc3n2)cc(NC(=O)n2c3ccccc3c3ccccc32)c1 [H-688] | 98% | inhibition rate of SARS-CoV-2 nucleocapsid (Western blotting) (SARS-CoV-2 [2]): high inhibition rate |
| COC(=O)c1cc(NC(=O)OC(C)(C)C)cc(NC(=O)n2ccc3ccccc32)c1 [H-872] | 78% |  |
| COC(=O)c1cc(NC(=O)c2ccc(CN)cc2)cc(NC(=O)n2c3ccccc3c3ccccc32)c1 [H-870] | 97% |  |
| COc1cc(OC)cc(C(=O)O[C@H](Cc2ccc3ccccc3c2)C(=O)O)c1 [H-198] | 67% |  |
| COC(=O)c1cc(NC(=O)c2ccc(CN(C)C)cc2)cc(NC(=O)n2c3ccccc3c3ccccc32)c1 [H-890] | 54% |  |
| COc1ccc2cc(CC(OC(=O)c3ccc4ccccc4c3)C(=O)O)ccc2c1 (centres unmarked) [H-512] | 90% |  |
| O=C(O)[C@@H](Cc1ccc2ccccc2c1)OC(=O)n1c2ccccc2c2ccccc21 [H-175] | 100% |  |
| O=C(N[C@H](Cc1ccc2ccccc2c1)C(=O)OCc1ccccc1)C1c2ccccc2-c2ccccc21 [H-105] | 100% |  |
| O=C(O)c1cc(NC(=O)C2COc3ccccc3O2)cc(NC(=O)n2c3ccccc3c3ccccc32)c1 (centres unmarked) [H-693] | 77% |  |
| CC(C)(C)OC(=O)Nc1cc(NC(=O)n2ccc3ccccc32)cc(C(=O)O)c1 [H-873] | 67% |  |
| O=C(O)c1cc(NC(=O)c2cnc3ccccc3n2)cc(NC(=O)n2c3ccccc3c3ccccc32)c1 [H-691] | 52% |  |
| COC(=O)c1cc(N)cc(NC(=O)N(c2ccccc2)c2ccccc2)c1 [H-725-2] | 81% |  |
| O=C(O)c1cc(OCc2ccc3ccccc3c2)cc(OCc2ccc3ccccc3c2)c1 [H-491] | 91% |  |
